Assay results as given in PMC5024008 (American Journal of Transplantation, 2015).
Each block holds one compound with its values, some of them ahead of it.

Tests used:
[1] = ABT-450 200 mg and 250 mg for 12 to 24 weeks; HCV-infected patients; cited from earlier work
[2] = Effect of a single dose of cyclosporine on DAA steady-state pharmacokinetics; type: in vivo, human (healthy volunteers); settings: for change in pharmacokinetic parameters: by cyclosporine and tacrolimus, steady-state 3D regimen
[3] = type: in vivo, human (healthy volunteers)

Compound: Cc1cnc(C(=O)N[C@H]2CCCCC/C=C\[C@@H]3C[C@@]3(C(=O)NS(=O)(=O)C3CC3)NC(=O)[C@@H]3C[C@@H](Oc4nc5ccccc5c5ccccc45)CN3C2=O)cn1 [ABT-450]
safety and tolerability [1]: safe and well tolerated

Compound: COc1c(-c2ccc3cc(NS(C)(=O)=O)ccc3c2)cc(-n2ccc(=O)[nH]c2=O)cc1C(C)(C)CO [Dasabuvir M1]
change in pharmacokinetic parameters [2]: ≤ 34%

Compound: COc1c(-c2ccc3cc(NS(C)(=O)=O)ccc3c2)cc(-n2ccc(=O)[nH]c2=O)cc1C(C)(C)C [Dasabuvir, dasabuvir]
change in pharmacokinetic parameters [2]: ≤ 34%

Compound: C=CC[C@@H]1/C=C(\C)C[C@H](C)C[C@H](OC)[C@H]2O[C@@](O)(C(=O)C(=O)N3CCCC[C@H]3C(=O)O[C@H](/C(C)=C/[C@@H]3CC[C@@H](O)[C@H](OC)C3)[C@H](C)[C@@H](O)CC1=O)[C@H](C)C[C@@H]2OC [tacrolimus]
AUC(0-inf) ([3]; human, whole blood, oral, 2 mg): 118 ng·h/mL | Cmax ([3]; human, whole blood, oral, 2 mg): 11 ng/mL | Tmax ([3]; human, whole blood, oral, 2 mg): 1.8 h | concentration at 12 h ([3]; human, whole blood, oral, 2 mg): 1.6 ng/mL | concentration at 24 h ([3]; human, whole blood, oral, 2 mg): 1.1 ng/mL | delay in Tmax ([3]; in the presence of the 3D regimen at steady state vs tacrolimus alone): 3.2 h | dose-normalized C24 with 3D relative to dose-normalized C12 alone ([3]; tacrolimus with steady-state 3D regimen vs tacrolimus alone): 11 fold

Second part, the compound after the results:

change in steady-state exposures (Cmax and AUC) ([2]; in the presence of cyclosporine or tacrolimus vs absence): ≤ 15%
Compound: COC(=O)N[C@H](C(=O)N1CCC[C@H]1C(=O)Nc1ccc([C@@H]2CC[C@@H](c3ccc(NC(=O)[C@@H]4CCCN4C(=O)[C@@H](NC(=O)OC)C(C)C)cc3)N2c2ccc(C(C)(C)C)cc2)cc1)C(C)C [Ombitasvir, ombitasvir]

change in pharmacokinetic parameters [2]: ≤ 34%
Compound: CC(C)c1nc(CN(C)C(=O)N[C@H](C(=O)N[C@@H](Cc2ccccc2)C[C@H](O)[C@H](Cc2ccccc2)NC(=O)OCc2cncs2)C(C)C)cs1 [Ritonavir, ritonavir]
